ChEMBL document CHEMBL1201862, “PubChem BioAssay data set” (2004)
Calls of active or inactive are those of the source.

Experiments:
[1] = target: Protein disulfide-isomerase (Homo sapiens, UniProt P07237); test: inhibition of PDI-driven insulin aggregation – biochemical, turbidity, absorbance, cherry-picked samples, dose response (AID 602350); format: functional
[2] = target: T1, Neuropeptides B/W receptor type 1 (Homo sapiens, UniProt P48145); test: human NPBW1 receptor blockade, IC50 – cell-based, fluorescence, dose response, set 5, late-stage follow-up (AID 588566); format: functional
T1 sequence (P48145 whole entry): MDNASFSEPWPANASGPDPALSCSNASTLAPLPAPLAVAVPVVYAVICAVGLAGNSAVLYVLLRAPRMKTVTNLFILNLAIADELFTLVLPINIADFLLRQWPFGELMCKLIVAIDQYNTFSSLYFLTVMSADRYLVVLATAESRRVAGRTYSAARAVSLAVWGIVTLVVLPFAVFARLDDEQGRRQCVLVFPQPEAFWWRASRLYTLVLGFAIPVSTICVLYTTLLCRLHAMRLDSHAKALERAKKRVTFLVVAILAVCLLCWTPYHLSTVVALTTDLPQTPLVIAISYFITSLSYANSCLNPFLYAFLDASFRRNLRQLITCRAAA

[3] = target: Melanin-concentrating hormone receptor 1 (Homo sapiens, UniProt Q99705); test: Late-stage fluorescence-based counterscreen for antagonists of the G-protein coupled receptor 7 (GPR7): cell-based dose response assay to identify antagonists of the melanin-concentrating hormone receptor 1 (MCHR1) Set 5.; format: functional
[4] = target: DNA dC->dU-editing enzyme APOBEC-3G (Homo sapiens, UniProt Q9HC16); test: inhibition of APOBEC3G ssDNA deamination – biochemical, fluorescence, single-stranded DNA substrate, SAR follow-up (AID 602136); format: functional; conditions: read-out: IC50_Mean
[5] = target: DNA dC->dU-editing enzyme APOBEC-3A (Homo sapiens, UniProt P31941); test: SAR analysis of small molecule inhibitors of APOBEC3A DNA Deaminase via a fluorescence-based single-stranded DNA deaminase assay.; format: functional; conditions: read-out: IC50_Mean
[6] = microbe, parasite or virus in culture; format: functional; conditions: Mycobacterium tuberculosis
[7] = Luminescence Cell-Based Dose Retest to Confirm Inhibitors of Cancer Stem Cells. [Related pubchem assays (depositor defined):AID2717, AID2721]; format: functional; conditions: Homo sapiens
[8] = target: Genome polyprotein (dengue virus type 2, UniProt P29990); test: flavivirus cap methylation enzyme inhibition – biochemical, confirmation dose response, primary screen (AID 588689); format: functional
[9] = tested on: INS1; test: INS-1E survival protection against cytokine death – cell-based, luminescence, retest, dose response (AID 449756); format: functional; conditions: Rattus norvegicus;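 further: cell death triggered by IL-1 beta plus TNF-alpha plus IFN-gamma mixture; protective hits raise ATP signal compared with cytokine alone wells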
[10] = tested on: CHO; test: CHO cell viability loss, potency – luminescence, cytotoxicity control for TLR9-MyD88 binding inhibitor project, dose response (AID 588339); format: functional, cell-based, hamster; conditions: Cricetulus griseus;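 further: CHO cells stably coexpressing TLR9 and MyD88 fusions from primary screen; compound exposure lasted 48 hours before viability readout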
[11] = target: Beta Lactamase (Pseudomonas aeruginosa, UniProt Q932Y6); test: BLA reporter interference, concentration series – BLA reporter cells, FRET fluorescence, artefact control for TLR9-MyD88 binding inhibitor project, dose response (AID 588341); format: cell-based;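 further: cell based assay in CHO-K1 cells stably expressing beta-lactamase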
[12] = target: Cysteine protease ATG4B (Homo sapiens, UniProt Q9Y4P1); format: functional;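 further: Fluorescence-based dose-response confirmation assay measuring inhibition of ATG4B activity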
[13] = target: Phospholipase A2 (Homo sapiens, UniProt P04054); format: functional;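 further: confirmatory dose-response counterscreen on phospholipase A2, testing hits that came from an ultra-high-throughput screen for ATG4B inhibitors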
[14] = target: Heat shock protein HSP 90-alpha (Homo sapiens, UniProt P07900); format: functional, organism-based
[15] = tested on: Streptococcus sp. 'group A'; test: Streptococcus pyogenes SK(-)GAS viability under kanamycin – luminescence, BacTiterGlo, confirmation, counter-screen for streptokinase expression inhibitor project, dose response (AID 1900); format: functional, organism-based
[16] = tested on: Streptococcus; test: GAS UMAA2166 growth inhibition – luminescence, BacTiterGlo, counter-screen for streptokinase expression inhibitor project, dose response (AID 1915); format: functional, organism-based;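 further: potency for reduction of bacterial viability or growth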
[17] = NIH3T3 cell viability loss – ATP luminescence, mouse fibroblasts, counter-screen, dose response (AID 2010); format: functional, cell-based;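 further: cells exposed to compound for about 90 hours before reading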
[18] = Trypanosoma cruzi growth suppression in host cells – NIH3T3 host cells, beta-gal luminescence, confirmation (AID 2044); format: functional, cell-based;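 further: intracellular parasites grown in NIH/3T3 mouse fibroblasts as host cells; luminescent beta-galactosidase reporter signal from transgenic T. cruzi replicating inside host cells; inhibitors lower the luminescence signal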
[19] = target: T2, Short transient receptor potential channel 4 (Mus musculus, UniProt Q9QUQ5); test: block of DAMGO-driven TRPC4 calcium entry – cell-based, HEK293 TRPC4/mu-opioid, Fluo-4 calcium, dose response (AID 434942); format: functional;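 further: potency of inhibitors blocking the TRPC4 calcium response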
T2 sequence (Q9QUQ5 whole entry): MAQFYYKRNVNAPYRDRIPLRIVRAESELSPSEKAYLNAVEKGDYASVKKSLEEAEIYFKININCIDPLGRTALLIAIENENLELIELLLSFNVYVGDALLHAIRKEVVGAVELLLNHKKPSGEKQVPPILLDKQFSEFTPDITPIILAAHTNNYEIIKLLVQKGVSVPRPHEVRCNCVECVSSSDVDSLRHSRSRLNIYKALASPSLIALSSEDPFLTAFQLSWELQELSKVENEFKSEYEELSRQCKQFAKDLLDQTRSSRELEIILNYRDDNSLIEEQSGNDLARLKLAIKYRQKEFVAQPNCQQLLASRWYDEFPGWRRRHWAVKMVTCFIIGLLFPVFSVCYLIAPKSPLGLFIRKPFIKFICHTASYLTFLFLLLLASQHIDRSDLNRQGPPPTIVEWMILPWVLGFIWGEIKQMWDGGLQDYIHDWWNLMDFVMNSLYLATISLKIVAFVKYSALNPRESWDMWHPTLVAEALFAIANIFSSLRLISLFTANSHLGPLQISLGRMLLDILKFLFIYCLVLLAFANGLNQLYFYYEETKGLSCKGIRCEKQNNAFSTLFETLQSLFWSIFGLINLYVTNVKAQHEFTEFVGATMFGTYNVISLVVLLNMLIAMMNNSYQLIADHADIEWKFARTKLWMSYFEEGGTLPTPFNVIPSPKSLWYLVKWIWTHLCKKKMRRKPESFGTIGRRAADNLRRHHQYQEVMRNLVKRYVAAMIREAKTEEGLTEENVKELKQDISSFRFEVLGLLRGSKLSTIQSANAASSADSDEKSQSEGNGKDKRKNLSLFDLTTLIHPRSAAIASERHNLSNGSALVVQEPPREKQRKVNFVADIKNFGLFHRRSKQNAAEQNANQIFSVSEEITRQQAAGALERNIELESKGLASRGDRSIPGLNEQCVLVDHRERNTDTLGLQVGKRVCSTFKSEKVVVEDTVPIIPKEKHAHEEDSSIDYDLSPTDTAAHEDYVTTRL

[20] = target: T3, Sentrin-specific protease 7 (Homo sapiens, UniProt Q9BQF6); format: functional;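 further: Luminescence-based dose-response confirmation of ultra-high-throughput screening hits, measuring inhibition of SENP7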
T3 sequence (Q9BQF6 whole entry): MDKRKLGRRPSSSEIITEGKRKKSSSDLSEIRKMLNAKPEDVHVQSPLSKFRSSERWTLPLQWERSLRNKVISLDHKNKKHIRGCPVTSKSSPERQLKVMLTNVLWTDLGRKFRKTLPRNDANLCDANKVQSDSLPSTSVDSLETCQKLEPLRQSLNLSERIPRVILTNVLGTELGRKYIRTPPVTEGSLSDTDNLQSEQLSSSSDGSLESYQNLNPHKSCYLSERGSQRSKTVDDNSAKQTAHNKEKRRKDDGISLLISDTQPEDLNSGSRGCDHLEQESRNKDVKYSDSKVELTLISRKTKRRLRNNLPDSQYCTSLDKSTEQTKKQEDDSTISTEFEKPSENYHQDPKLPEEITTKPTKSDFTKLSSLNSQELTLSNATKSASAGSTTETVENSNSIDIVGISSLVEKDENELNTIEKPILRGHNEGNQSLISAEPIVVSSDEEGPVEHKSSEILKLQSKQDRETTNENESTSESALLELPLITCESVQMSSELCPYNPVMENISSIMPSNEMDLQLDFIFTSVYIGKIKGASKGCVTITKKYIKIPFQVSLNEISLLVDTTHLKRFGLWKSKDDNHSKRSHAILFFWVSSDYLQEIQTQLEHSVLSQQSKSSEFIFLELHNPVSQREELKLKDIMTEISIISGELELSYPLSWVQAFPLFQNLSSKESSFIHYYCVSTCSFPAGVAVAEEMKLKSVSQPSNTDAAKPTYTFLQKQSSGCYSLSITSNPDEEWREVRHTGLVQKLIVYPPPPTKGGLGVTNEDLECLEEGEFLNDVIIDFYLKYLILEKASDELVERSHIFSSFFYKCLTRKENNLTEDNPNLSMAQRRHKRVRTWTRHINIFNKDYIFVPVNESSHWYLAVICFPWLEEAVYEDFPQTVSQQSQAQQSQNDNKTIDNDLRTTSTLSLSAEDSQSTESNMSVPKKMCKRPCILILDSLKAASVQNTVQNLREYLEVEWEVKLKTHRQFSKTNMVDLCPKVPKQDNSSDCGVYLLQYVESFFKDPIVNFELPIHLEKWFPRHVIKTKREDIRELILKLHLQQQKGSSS

[21] = target: T4, Caspase-3 (Homo sapiens, UniProt P42574); format: functional;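 further: Dose-response selectivity test against caspase-3 for candidate inhibitors of sentrin-specific proteases (SENPs)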
T4 sequence (P42574 whole entry): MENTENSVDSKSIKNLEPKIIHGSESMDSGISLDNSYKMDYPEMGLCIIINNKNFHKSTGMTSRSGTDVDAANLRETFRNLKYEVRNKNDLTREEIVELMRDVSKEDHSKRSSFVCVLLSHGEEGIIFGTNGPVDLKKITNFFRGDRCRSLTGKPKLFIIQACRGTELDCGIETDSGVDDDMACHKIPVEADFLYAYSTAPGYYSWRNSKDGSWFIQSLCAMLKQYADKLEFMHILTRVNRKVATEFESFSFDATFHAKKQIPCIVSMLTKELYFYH

[22] = target: T5, Sentrin-specific protease 6 (Homo sapiens, UniProt Q9GZR1); format: functional;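 further: Luminescence-based dose-response confirmatory assay of SENP6 inhibition, following up an ultra-high-throughput screen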
T5 sequence (Q9GZR1 whole entry): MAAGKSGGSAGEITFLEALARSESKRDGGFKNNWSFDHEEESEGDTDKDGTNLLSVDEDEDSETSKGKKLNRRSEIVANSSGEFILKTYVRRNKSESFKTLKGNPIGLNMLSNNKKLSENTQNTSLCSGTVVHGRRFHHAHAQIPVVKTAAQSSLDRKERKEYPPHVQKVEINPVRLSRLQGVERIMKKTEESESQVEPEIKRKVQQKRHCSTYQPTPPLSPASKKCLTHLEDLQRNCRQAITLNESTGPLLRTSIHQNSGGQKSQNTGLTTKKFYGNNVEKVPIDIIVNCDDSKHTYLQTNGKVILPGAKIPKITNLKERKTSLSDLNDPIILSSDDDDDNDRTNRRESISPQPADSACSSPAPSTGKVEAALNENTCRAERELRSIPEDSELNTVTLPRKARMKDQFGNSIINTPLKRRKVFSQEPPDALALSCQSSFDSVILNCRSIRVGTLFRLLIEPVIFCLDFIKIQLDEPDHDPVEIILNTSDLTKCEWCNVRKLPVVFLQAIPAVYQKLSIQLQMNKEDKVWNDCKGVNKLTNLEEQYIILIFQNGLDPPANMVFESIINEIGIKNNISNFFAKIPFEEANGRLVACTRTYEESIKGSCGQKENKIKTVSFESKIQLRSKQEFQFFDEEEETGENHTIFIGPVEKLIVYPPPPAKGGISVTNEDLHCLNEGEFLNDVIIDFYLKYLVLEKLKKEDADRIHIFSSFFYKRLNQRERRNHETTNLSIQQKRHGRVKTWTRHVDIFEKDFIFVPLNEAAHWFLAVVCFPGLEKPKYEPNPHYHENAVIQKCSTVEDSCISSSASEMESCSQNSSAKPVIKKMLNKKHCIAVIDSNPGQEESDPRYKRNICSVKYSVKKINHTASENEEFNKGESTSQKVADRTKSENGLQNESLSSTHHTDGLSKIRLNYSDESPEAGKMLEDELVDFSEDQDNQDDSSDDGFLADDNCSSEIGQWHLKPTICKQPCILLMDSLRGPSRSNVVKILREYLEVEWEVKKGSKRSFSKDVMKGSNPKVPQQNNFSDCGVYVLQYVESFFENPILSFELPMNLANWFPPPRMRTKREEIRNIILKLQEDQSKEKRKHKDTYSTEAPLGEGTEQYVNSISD

[23] = target: T6, Sentrin-specific protease 8 (Homo sapiens, UniProt Q96LD8); format: functional;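 further: luminescence read-out of SENP8 inhibition, dose-response confirmation following an ultra-high-throughput screen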
T6 sequence (Q96LD8 whole entry): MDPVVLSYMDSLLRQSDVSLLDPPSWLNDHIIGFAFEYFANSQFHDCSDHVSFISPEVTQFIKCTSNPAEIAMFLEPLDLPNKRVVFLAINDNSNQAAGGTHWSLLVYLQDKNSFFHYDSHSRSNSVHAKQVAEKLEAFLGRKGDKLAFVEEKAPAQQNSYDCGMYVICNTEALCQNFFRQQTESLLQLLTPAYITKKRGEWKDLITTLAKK

[24] = target: T2, Short transient receptor potential channel 4; test: calcium entry via TRPC4 opening agents – cell-based, HEK293 TRPC4/mu-opioid, Fluo-4 calcium, dose response (AID 434937); format: functional

Sequence of Cysteine protease ATG4B (Q9Y4P1 whole entry): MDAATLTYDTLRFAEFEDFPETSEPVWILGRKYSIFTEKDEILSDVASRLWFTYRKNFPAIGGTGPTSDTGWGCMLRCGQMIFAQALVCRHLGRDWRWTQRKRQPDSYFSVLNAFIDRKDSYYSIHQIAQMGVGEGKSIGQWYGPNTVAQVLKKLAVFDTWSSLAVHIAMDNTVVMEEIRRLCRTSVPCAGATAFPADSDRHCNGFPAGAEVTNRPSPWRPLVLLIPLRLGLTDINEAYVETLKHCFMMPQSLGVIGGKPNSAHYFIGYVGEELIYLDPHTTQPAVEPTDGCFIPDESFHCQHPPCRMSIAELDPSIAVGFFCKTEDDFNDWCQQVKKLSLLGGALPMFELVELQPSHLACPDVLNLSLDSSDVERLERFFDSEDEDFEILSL
Sequence of DNA dC->dU-editing enzyme APOBEC-3G (Q9HC16 whole entry): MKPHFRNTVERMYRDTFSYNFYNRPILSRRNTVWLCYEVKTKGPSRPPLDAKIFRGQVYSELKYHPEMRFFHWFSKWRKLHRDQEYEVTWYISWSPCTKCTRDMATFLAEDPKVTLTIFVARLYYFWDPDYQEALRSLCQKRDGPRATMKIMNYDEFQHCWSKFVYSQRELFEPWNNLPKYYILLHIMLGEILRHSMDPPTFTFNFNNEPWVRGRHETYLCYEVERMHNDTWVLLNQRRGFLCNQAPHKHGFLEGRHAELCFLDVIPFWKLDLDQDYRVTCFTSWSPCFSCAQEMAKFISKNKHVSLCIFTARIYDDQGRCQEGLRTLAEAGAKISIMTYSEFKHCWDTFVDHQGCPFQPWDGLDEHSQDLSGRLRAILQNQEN
Sequence of DNA dC->dU-editing enzyme APOBEC-3A (P31941 whole entry): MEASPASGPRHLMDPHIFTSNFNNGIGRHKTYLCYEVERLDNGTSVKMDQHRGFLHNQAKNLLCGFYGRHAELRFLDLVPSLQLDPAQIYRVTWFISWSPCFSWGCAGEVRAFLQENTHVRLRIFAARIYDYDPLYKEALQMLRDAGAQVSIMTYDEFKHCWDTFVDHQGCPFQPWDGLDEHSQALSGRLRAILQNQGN
Sequence of Beta Lactamase (Q932Y6 whole entry): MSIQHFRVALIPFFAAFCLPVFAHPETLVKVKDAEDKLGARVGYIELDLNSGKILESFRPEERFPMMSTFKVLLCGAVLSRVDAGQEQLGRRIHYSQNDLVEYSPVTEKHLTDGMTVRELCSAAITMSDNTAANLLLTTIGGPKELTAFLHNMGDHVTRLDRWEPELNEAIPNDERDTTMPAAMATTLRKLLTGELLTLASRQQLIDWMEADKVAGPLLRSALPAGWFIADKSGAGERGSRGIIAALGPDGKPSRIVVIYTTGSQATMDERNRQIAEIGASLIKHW
Sequence of Phospholipase A2 (P04054 whole entry): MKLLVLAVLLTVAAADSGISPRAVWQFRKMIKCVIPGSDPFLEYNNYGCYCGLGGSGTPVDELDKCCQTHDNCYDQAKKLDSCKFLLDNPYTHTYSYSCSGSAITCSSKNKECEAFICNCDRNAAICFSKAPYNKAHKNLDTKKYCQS
Sequence of Protein disulfide-isomerase (P07237 whole entry): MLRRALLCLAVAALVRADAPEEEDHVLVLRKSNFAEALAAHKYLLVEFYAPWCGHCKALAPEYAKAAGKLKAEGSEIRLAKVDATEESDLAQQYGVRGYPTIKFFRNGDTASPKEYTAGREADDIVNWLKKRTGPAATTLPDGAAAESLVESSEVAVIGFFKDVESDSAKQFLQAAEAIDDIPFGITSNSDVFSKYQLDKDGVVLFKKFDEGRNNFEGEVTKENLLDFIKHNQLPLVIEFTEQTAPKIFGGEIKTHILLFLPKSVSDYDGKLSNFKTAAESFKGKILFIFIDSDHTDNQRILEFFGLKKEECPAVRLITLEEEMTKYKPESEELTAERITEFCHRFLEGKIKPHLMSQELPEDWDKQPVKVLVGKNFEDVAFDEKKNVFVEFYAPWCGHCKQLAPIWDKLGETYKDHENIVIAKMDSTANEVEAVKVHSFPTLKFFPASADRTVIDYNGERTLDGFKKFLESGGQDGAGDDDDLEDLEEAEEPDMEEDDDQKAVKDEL
Sequence of Genome polyprotein (P29990 2492-3391 limits assumed): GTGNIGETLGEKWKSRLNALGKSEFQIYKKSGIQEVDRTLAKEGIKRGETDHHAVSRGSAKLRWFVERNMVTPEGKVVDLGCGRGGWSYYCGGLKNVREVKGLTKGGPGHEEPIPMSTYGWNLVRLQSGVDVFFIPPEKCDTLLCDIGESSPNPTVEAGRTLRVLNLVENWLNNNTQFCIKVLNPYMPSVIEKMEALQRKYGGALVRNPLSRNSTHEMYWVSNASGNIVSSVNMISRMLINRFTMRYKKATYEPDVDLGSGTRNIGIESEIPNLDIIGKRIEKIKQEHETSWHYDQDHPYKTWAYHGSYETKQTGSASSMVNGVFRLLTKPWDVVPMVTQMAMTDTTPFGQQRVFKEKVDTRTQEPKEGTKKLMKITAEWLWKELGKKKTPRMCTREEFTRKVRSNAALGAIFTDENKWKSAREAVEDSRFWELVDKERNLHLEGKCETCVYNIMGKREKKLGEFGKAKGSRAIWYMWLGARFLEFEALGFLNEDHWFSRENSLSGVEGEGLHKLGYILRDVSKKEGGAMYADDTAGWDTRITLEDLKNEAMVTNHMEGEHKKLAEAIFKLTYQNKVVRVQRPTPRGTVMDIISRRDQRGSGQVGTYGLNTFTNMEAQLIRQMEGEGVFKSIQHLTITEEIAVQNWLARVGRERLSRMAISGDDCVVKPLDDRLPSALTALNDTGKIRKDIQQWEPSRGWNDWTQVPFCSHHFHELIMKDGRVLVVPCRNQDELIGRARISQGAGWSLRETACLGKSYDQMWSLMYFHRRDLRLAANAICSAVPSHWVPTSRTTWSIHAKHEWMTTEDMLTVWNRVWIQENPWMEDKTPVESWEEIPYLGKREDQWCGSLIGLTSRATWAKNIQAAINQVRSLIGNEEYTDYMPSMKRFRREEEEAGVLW
Sequence of Melanin-concentrating hormone receptor 1 (Q99705 whole entry): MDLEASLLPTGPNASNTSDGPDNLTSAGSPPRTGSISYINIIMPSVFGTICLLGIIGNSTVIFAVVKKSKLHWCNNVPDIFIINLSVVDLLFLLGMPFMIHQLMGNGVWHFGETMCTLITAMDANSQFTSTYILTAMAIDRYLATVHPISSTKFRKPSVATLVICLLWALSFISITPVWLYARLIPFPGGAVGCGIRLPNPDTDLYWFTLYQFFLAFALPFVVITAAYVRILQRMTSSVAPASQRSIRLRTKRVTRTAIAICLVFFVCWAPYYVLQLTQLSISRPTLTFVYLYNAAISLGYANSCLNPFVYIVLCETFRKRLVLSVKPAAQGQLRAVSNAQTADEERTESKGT

SMILES: Cc1cccn2c(CN(C)C3CCCc4ccccc43)c(C(=O)N3CCOCC3)nc12 (stereo unspecified)
- AC50 [1]: 19.5 µM (active)

SMILES: COc1cccc(Oc2c(Cl)cnn(C3c4ccccc4-c4ccccc43)c2=O)c1
- IC50 [2]: 9.69 µM (active)
- IC50 [3]: > 20 µM (inactive)

SMILES: Cc1nc(Cc2nnc(SCC(=O)c3cc(C)n(Cc4ccccc4)c3C)o2)cs1
- IC50 [4]: > 99 µM (inactive)
- IC50 [5]: > 99 µM (inactive)

SMILES: N#Cc1c([N+](=O)[O-])cc([N+](=O)[O-])cc1S(=O)(=O)Cc1ccccc1
- CC50 [6]: > 40 µM (active)
- AC50 [7]: 1.61 µM (active)
- IC50 [8]: > 100 µM (active)
- AC50 [9]: 3.59 µM (active)
- IC50 [10]: 1.6 µM (active)
- IC50 [11]: 12.1 µM (inactive)

SMILES: O=C(CSc1nnc(COc2ccc(Cl)cc2)n1Cc1ccco1)c1ccccc1F
- IC50 [12]: 2.36 µM (active)
- IC50 [13]: 55.7 µM (inactive)

SMILES: O=[N+]([O-])c1ccc(N2N=C(c3ccccc3)CC2c2ccccc2O)cc1 (stereo unspecified)
- AC50 [7]: 2.65 µM (active)
- AC50 [14]: 3.31 µM (active)
- IC50 [10]: 28.5 µM (inactive)
- EC50 [15]: 2.31 µM (active)
- EC50 [16]: 3.46 µM (active)
- EC50 [17]: > 60 µM (not active)
- IC50 [11]: 4.58 µM (active)
- EC50 [18]: 1.45 µM (active)

SMILES: O=C(O)c1cc(NN=C2c3ccccc3-c3ccccc32)ccc1Cl
- IC50 [12]: 9.33 µM (active)
- IC50 [13]: 9.27 µM (active)
- EC50 [19]: 2.99 µM (active)

SMILES: O=C(Nc1ccc(Br)cn1)c1ccc(Br)s1
- IC50 [20]: 6.53 µM (active)
- IC50 [21]: 20.4 µM (active)
- IC50 [22]: > 100 µM (inactive)
- IC50 [23]: > 100 µM (inactive)

SMILES: COc1ccc2c(Cl)c(-c3nnc4n3CCCCC4)sc2c1
- IC50 [4]: > 99 µM (inactive)
- EC50 [24]: 1.88 µM (active)
- IC50 [5]: > 99 µM (inactive)
